Entries after “also recorded” stand apart in the source; their conditions may differ.
What was measured:
[1] = test system: rats with SU-5416/hypoxia-induced PAH; assay: SU-5416/hypoxia-induced PAH, prevention study with eplerenone; type: in vivo, rat; details: SU-5416 (20 mg/kg s.c.) plus chronic hypoxia 21 days vs normal rats; n=5
[2] = test system: HPAECs; assay: Aldosterone levels in HPAEC culture medium by enzyme immunoassay; type: cell-based, human; details: 24 h, n=4
[3] = test system: PGC-1α and steroidogenesis factor-1 (SF); assay: PGC-1α and SF protein expression in HPAECs by Western analysis; type: cell-based, human; details: for PGC-1α protein expression levels: 24 h, n=3
Description: (§1) Cell culture and treatments. Human pulmonary artery endothelial cells (HPAECs) (Lonza) (male donors) were grown to confluence using phenol-free EGM-2 medium supplemented with 5% fetal bovine serum at 37° C., 5% CO2. Cells were passaged twice-weekly using 0.5% trypsin/EDTA, and experiments were performed on cells from passages 4-10. Aldosterone (Steraloids) and ET-1 (1-100 nM) (Sigma-Aldrich) were dissolved in dimethylsufloxide ([…]) and deoxygenated water, respectively, which served as vehicle controls. Cells were treated with aldosterone (10^−−10^−7 mol/L) for 24 h and in selected experiments co-incubated with the mineralocorticoid receptor inhibitor spironolactone (10 μM/l) (Sigma-Aldrich).
(§2) Immunoblotting. Proteins were size fractionated electrophoretically using SDS-PAGE and transferred to polyvinylidene fluoride membranes. The membranes were incubated with anti-ETA (Santa Cruz Biotechnology), anti-ETB (Santa Cruz Biotechnology), anti-NOX4 (Santa Cruz Biotechnology), anti-p22P^phox (Santa Cruz), anti-eNOS (Cell Signaling), anti-PGC-1α (Santa Cruz Biotechnology), and anti-SF (Santa Cruz Biotechnology) antibodies overnight at 4° C. and visualized using the ECL detection system (Amersham Biosciences). In experiments to assess ETA expression, purified ETA protein (Novus Biological) was loaded to serve as an internal control.

[4] = test system: HPAECs; assay: Amplex Red assay of hydrogen peroxide levels in HPAECs; type: cell-based, human; details: ET-1 10 nM, HPAECs; p=0.43, n=4
Description: Human pulmonary artery endothelial cells (HPAECs) (Lonza) (male donors) were grown to confluence using phenol-free EGM-2 medium supplemented with 5% fetal bovine serum at 37° C., 5% CO2. Cells were passaged twice-weekly using 0.5% trypsin/EDTA, and experiments were performed on cells from passages 4-10. Aldosterone (Steraloids) and ET-1 (1-100 nM) (Sigma-Aldrich) were dissolved in dimethylsufloxide (10 nmol/L) and deoxygenated water, respectively, which served as vehicle controls. Cells were treated with aldosterone (10^−−10^−7 mol/L) for 24 h and in selected experiments co-incubated with the mineralocorticoid receptor inhibitor spironolactone (10 μM/l) (Sigma-Aldrich).

[5] = test system: CYP11B2 promoter; assay: Chromatin immunoprecipitation assay, CYP11B2 promoter; type: cell-based, human; details: ET-1 10 nM, 24 h; vs V 16.3±9.8; n=3
Description: Chromatin immunoprecipitation assay. Chromatin immunoprecipitation assays were performed using the QuikChIP assay (Imgenex) according to the manufacturer's instructions. PCR amplification was performed on the proximal region of the CYP11B2 promoter region containing the gonadotrope-specific element ^51. The primers used were: forward 5′-[…]-3′ (SEQ ID NO:2) and reverse 5′-[…]-3′ (SEQ ID NO: 3). CYP11B2 primers used for PCR were forward: 5′ […]-3′ (SEQ ID NO: 4) and reverse: 5′-[…]-3′ (SEQ ID NO:5).

[6] = test system: eNOS; assay: eNOS activity ([14C] arginine, NOS activity kit) in HPAECs; type: cell-based, human; details: ET-1 (10 nM) stimulated HPAECs, without or with aldosterone; n=3
Description: eNOS activity. eNOS activity was measured using the NOS activity kit (Cayman) according to the manufacturer's instructions with some modifications. Cells were washed with PBS containing 1 mM EDTA, transferred to a microcentrifuge tube, and centrifuged at 14,000×g at 4° C. for 2 min. The supernatant was decanted and homogenization buffer (250 mM Tris-HCl, pH 7.4, 6 μM BH4, 2 μM flavin adenine dinucleotide, and 2 μM flavin adenine mononucleotide) was added to the cell pellets. […] The samples were then centrifuged at 14,000×g for 30 seconds and radioactivity of the eluant was quantified in a liquid scintillation counter (Beckman-Coulter).

[7] = test system: ETB-dependent NO. generation in HPAECs; assay: NO. metabolites (NO2−, NO3−) in ET-1-stimulated HPAECs; type: cell-based, human
Description: Cell culture and treatments. Human pulmonary artery endothelial cells (HPAECs) (Lonza) (male donors) were grown to confluence using phenol-free EGM-2 medium supplemented with 5% fetal bovine serum at 37° C., 5% CO2. Cells were passaged twice-weekly using 0.5% trypsin/EDTA, and experiments were performed on cells from passages 4-10. Aldosterone (Steraloids) and ET-1 (1-100 nM) (Sigma-Aldrich) were dissolved in dimethylsufloxide (10 nmol/L) and deoxygenated water, respectively, which served as vehicle controls. Cells were treated with aldosterone (10^−−10^−7 mol/L) for 24 h and in selected experiments co-incubated with the mineralocorticoid receptor inhibitor spironolactone (10 μM/l) (Sigma-Aldrich).

[8] = test system: CYP11B2 (aldosterone synthase); assay: CYP11B2 protein expression in HPAECs by Western analysis; type: cell-based, human; details: 24 h, n=3
Description: as §1, §2

[9] = test system: PGC-1α / steroidogenesis factor-1 (SF); assay: Co-immunoprecipitation of PGC-1α with SF in HPAECs; type: cell-based, human; details: ET-1 10 nM, 24 h, n=3
Description: Co-immunoprecipitation of proteins. Cell monolayers were washed twice with ice-cold PBS and incubated on ice with RIPA buffer supplemented with various protease inhibitors (Millpore). Cells were scraped with a rubber policeman and samples were rotated at 4° C. for 15 min. Lysates were centrifuged at 14,000×g at 4° C. for 15 min and the then pre-cleared with a 50% slurry of Protein G agarose beads (Santa Cruz Biotechnology) mixed with PBS. Following removal of the beads by centrifugation, cell lysates were incubated with an anti-ETB or anti-PGC-1α antibody (Santa Cruz Biotechnology) overnight at 4° C. The immunocomplex was captured by incubating lysates with 50% Protein G agarose bead slurry at 4° C. for 1 h. Beads were collected by pulse centrifugation, resuspended in non-reducing sample buffer, and then boiled for 10 min to dissociate the immunocomplex from the beads. Western analysis was performed with an anti-SF (Santa Cruz) or anti-sulfenic acid (R—SOH) antibody (Millpore) as described above.

[10] = test system: HPAECs; assay: 3-Nitrotyrosine immunohistochemistry in HPAECs; type: cell-based, human; details: V 24.1±3.3, n=5
Description: 3-Nitrotyrosine immunohistochemistry. Cells grown to confluence on glass chamber slides were fixed following treatments and anti-3-nitrotyrosine immunohistochemistry (Santa Cruz Biotechnology) was performed using the 3,3′-diaminobenzidine substrate method (Vector laboratories) as described previously.^1

[11] = target: T1, ETB (Homo sapiens, UniProt P24530); assay: Disulfide bond formation of ETB in transfected COS-7 cells exposed to H2O2; type: cell-based; details: H2O2 200 μmol/L for 20 min
T1 construct: host or cells: COS-7
T1 sequence (P24530 27-442): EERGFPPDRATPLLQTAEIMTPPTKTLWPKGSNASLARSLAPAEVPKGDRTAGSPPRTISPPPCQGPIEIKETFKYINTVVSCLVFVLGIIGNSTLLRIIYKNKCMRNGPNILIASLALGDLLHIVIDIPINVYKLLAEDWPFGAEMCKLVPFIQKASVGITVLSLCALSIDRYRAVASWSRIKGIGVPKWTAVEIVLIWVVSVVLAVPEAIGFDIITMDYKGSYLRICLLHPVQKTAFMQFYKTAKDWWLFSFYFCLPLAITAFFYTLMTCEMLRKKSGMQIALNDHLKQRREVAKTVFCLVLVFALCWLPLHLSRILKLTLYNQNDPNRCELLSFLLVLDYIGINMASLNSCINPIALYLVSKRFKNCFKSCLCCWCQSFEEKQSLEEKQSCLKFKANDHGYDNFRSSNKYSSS
Description: Western analysis to detect ETB disfulfide bond formation. Western analysis to detect ETB disulfide bond formation was performed as described previously.^7 Briefly, protein extracts from cells were lysed in alkylating buffer containing 0.1 M Tris-HCL, pH 6.8, 1% SDS, 100 mM iodoacetamide, and 100 mM N-ethylmaleimide, and sonicated on ice for 5 min followed by a 30-min incubation at 25° C. Alkylated proteins were then precipitated with acetone. Proteins were resuspended in 50 μl of 0.1 M Tris-HCl, pH 7.4, 1% SDS; and disulfides were reduced with 5 mM tris(2-carboxyethyl)phosphine hydrochloride (TCEP). Following a 20-min incubation at 25° C., TCEP was removed with a Micro Bio-Spin™ column 6 (Bio-Rad), and 1% SDS was added to the eluant. The cysteines previously participating in a disulfide bond, now reduced, were labeled with 1 mM polyethylene glycol-conjugated maleimide (molecular mass 10 kDa) (Fluka). After a 1-h incubation at 25° C., proteins were precipitated with acetone, resuspended in 50 μl of non-reducing SDS electrophoresis buffer, and boiled for 10 min. Protein samples were then size-fractionated electrophoretically using SDS-PAGE, and transferred to a polyvinylidene fluoride membrane. […]

[12] = test system: ETB-dependent NO. synthesis in COS-7 cells; assay: ETB-dependent NO2− formation in transfected COS-7 cells after H2O2; type: cell-based, monkey (African green monkey); details: COS-7 cells co-expressing WT-eNOS; H2O2 200 μmol/L 60 min, then ET-1 10 nM 10 min; n=4
Description: NO. metabolites. Nitrite (NO2^−) and nitrate (NO3^−) were measured in cell culture medium containing 2% fetal bovine serum and L-arginine (1 mmol/l) (Sigma-Aldrich) by 1(H)-naphthotriazole fluorescence (Cayman) as previously reported.^1 To measure NO2^− levels in whole lung tissue, lung specimens were harvested from rats and snap frozen in liquid nitrogen. Samples were thawed, homogenized in PBS (pH 7.4), and centrifuged at 14,000×g at 4° C. for 20 min. The supernatant was ultrafiltered using a 30 kDa molecular weight filter (Millpore), and the eluant was used to measure NO2^− levels according to manufacturer's instructions (Cayman).
Site-directed mutagenesis and transfection. cDNAs encoding wild type (WT) eNOS and WT-ETB from human were cloned into the mammalian expression vector pCMV6 (Origene). The C405A-ETB mutant was purchased from Genewiz (South Plainfield, N.J.). […] After this time, the medium was replaced with Dulbecco's Modified Eagle Medium (Gibco) supplemented with 10% FBS, and experiments were performed after 24 h.

Molecule: Cc1cc(C)c(/C=C2\C(=O)Nc3ccccc32)[nH]1 [SU-5416]
- increase in plasma aldosterone levels [1]: 418%

Molecule: endothelin-1 [ET-1]
- aldosterone levels in the cell culture medium ([2]; ET-1 1 nM): 241.1±44.8 % control
- aldosterone levels in the cell culture medium ([2]; ET-1 10 nM): 283.5±94.7 % control
- aldosterone levels in the cell culture medium ([2]; ET-1 100 nM): 396.0±116.5 % control
- PGC-1α protein expression levels ([3]; ET-1 1 nM): 176.5±52.8 % control
- PGC-1α protein expression levels ([3]; ET-1 10 nM): 224.7±68.1 % control
- PGC-1α protein expression levels ([3]; ET-1 100 nM): 296.7±145.8 % control
- SF protein levels ([3]; ET-1, 24 h): no effect
- H2O2 levels compared to V-treated cells [4]: no effect
- SF binding to the CYP11B2 promoter [5]: 61.6±9.3 arb. units
- eNOS activity [6]: 18.5±3.5 [^14C] L-citrulline c.p.m./μg protein
- NO2^− generation ([7]; ET-1 10 nM, maximum effect at 10 min, HPAECs, vs V 29.4±3.6, n=3): 139.4±31.8 μM/μg protein
- total NO. metabolite (NOx: NO2^−+NO3^−) formation ([7]; ET-1 (10 nM) stimulated HPAECs, without or with aldosterone, n=3): 157.9±12.7 μM/μg protein
- NO2^−/NO3^− ratio compared to V ([7]; ET-1 alone, HPAECs): did not affect
- CYP11B2 protein expression levels ([8]; ET-1 1 nM): 157.3±27.5 % control
- CYP11B2 protein expression levels ([8]; ET-1 10 nM): 180.4±13.4 % control
- CYP11B2 protein expression levels ([8]; ET-1 100 nM): 234.8±4.3 % control
- association between PGC-1α and SF (co-immunoprecipitation) [9]: 1260±104 arb. units
- levels of 3-nitrotyrosine [10]: 31.2±3.2 arb. units

B1: WT-ETB: wild type human ETB expressed in COS-7 cells (protein)
chain: EERGFPPDRATPLLQTAEIMTPPTKTLWPKGSNASLARSLAPAEVPKGDRTAGSPPRTISPPPCQGPIEIKETFKYINTVVSCLVFVLGIIGNSTLLRIIYKNKCMRNGPNILIASLALGDLLHIVIDIPINVYKLLAEDWPFGAEMCKLVPFIQKASVGITVLSLCALSIDRYRAVASWSRIKGIGVPKWTAVEIVLIWVVSVVLAVPEAIGFDIITMDYKGSYLRICLLHPVQKTAFMQFYKTAKDWWLFSFYFCLPLAITAFFYTLMTCEMLRKKSGMQIALNDHLKQRREVAKTVFCLVLVFALCWLPLHLSRILKLTLYNQNDPNRCELLSFLLVLDYIGINMASLNSCINPIALYLVSKRFKNCFKSCLCCWCQSFEEKQSLEEKQSCLKFKANDHGYDNFRSSNKYSSS
- disulfide bond formation of ETB [11]: formation of one or two disulfide bonds; also recorded: formation of 1 or 2 disulfide bonds
- decrease of ET-1-stimulated NO2^− formation by H2O2 compared to V-treated cells [12]: 78.0%

B2: C405A-ETB (protein)
chain: EERGFPPDRATPLLQTAEIMTPPTKTLWPKGSNASLARSLAPAEVPKGDRTAGSPPRTISPPPCQGPIEIKETFKYINTVVSCLVFVLGIIGNSTLLRIIYKNKCMRNGPNILIASLALGDLLHIVIDIPINVYKLLAEDWPFGAEMCKLVPFIQKASVGITVLSLCALSIDRYRAVASWSRIKGIGVPKWTAVEIVLIWVVSVVLAVPEAIGFDIITMDYKGSYLRICLLHPVQKTAFMQFYKTAKDWWLFSFYFCLPLAITAFFYTLMTCEMLRKKSGMQIALNDHLKQRREVAKTVFCLVLVFALCWLPLHLSRILKLTLYNQNDPNRCELLSFLLVLDYIGINMASLNSCINPIALYLVSKRFKNCFKSCLCCWAQSFEEKQSLEEKQSCLKFKANDHGYDNFRSSNKYSSS
- disulfide bond formation of ETB [11]: resistant to the formation of disulfide bonds; also recorded: resistant to disulfide bond formation
- decrease of ET-1-stimulated NO2^− formation by H2O2 compared to V-treated cells [12]: 45.0%

From patent US9605047B2, “Compositions and methods for treating hypertension” (The Brigham and Women's Hospital, Inc., priority 2012, dated 2017)
